Assay results: paper PMC11181328 (Journal of Medicinal Chemistry, 2024)
Counter-ions that a name gives are not always drawn. Like-named read-outs stand apart in the source and are kept apart here.

Legend:
[1] = biological target: T1, DOR (Homo sapiens, UniProt P41143); assay: [35S]-GTPγS functional assay, DOR; type: biochemical; conditions: for EC50: hDOR-CHO membranes; for Emax: percent of SNC80 full agonist control
T1 construct: expressed in transfected cells; membrane homogenate

[2] = biological target: T2, KOR (Mus musculus, UniProt P33534); assay: Competitive radioligand binding assay, KOR; conditions: for radioligand binding affinity (Ki, nM) KOR: [3H]diprenorphine, mKOR-CHO membranes; for selectivity ratio δ/κ / selectivity ratio μ/κ: ratio of Ki values
T2 construct: expressed in transfected cells; membrane homogenate

[3] = biological target: T3, MOR (Mus musculus, UniProt P42866); assay: [35S]-GTPγS functional assay, MOR; type: biochemical; parameters: expressed in transfected cells; membrane homogenate; conditions: for Emax: read-out: [35S]-GTPγS functional activity MOR Emax (%)
[4] = biological target: T2, KOR; assay: [35S]-GTPγS functional assay, KOR; type: biochemical; conditions: for EC50: mKOR-CHO membranes; for Emax: percent of U50,488 full agonist control
[5] = biological target: T1, DOR; assay: Competitive radioligand binding assay, DOR
[6] = test system: male Swiss Webster mice; assay: Warm-water tail immersion assay, agonism (single dose screen and potency); type: in vivo, mouse; conditions: for ED50: Mus musculus, sc, read-out: potency ED50 [95% CI] mg/kg, s.c., 20 min prior to tail withdrawal latency measurement, male Swiss Webster mice; for percent MPE: withdrawal latency 20 min after administration
[7] = biological target: T3, MOR; assay: Competitive radioligand binding assay, MOR; parameters: expressed in transfected cells; membrane homogenate
[8] = [3H]naloxone, mMOR-CHO membranes

SMILES	EC50 [1] [nM]	Ki [2] [nM]	radioligand binding affinity (Ki, nM) KOR [2]	EC50 ([3]; mMOR-CHO membranes) [nM]	EC50 [4] [nM]	Ki [5] [nM]	ED50 [6] [mg/kg]	percent MPE ([6]; single dose 10 mg/kg s.c.) [%]	Ki [7] [nM]	radioligand binding affinity (Ki, nM) MOR [7, 8]	Emax [1] [%]	Emax [3] [%]	radioligand binding affinity (Ki, nM) DOR ([5]; [3H]diprenorphine, hDOR-CHO membranes)	selectivity ratio δ/κ [2]	selectivity ratio μ/κ [2]	Emax [4] [%]	EC50 ([3]; supplement csv) [nM]	antinociception compared to the vehicle group ([6]; single dose 10 mg/kg s.c., 20 min)	Ki ([7]; [3H]naloxone, mMOR-CHO membranes, read-out: radioligand binding affinity (Ki, nM) MOR) [nM]
O=C(/C=C/c1ccco1)N[C@@H]1CC[C@@]2(O)[C@H]3Cc4ccc(O)c5c4[C@@]2(CCN3CC2CC2)[C@H]1O5 [Compound 24, 17-Cyclopropylmethyl-3,14β-dihydroxy-4,5α-epoxy-6β-[(2E)-3′-(furan-2″-yl)prop-2-enamido]morphinan Hydrochloride]	13.1 ± 2.09	0.17 ± 0.02	subnanomolar	6.76 ± 1.99	0.54 ± 0.11	12.8 ± 2.37	3.32	≥ 80	0.3 ± 0.02	subnanomolar									
CN(C(=O)CCc1ccoc1)[C@H]1CC[C@@]2(O)[C@H]3Cc4ccc(O)c5c4[C@@]2(CCN3CC2CC2)[C@H]1O5 [Compound 5, 17-Cyclopropylmethyl-3,14β-dihydroxy-4,5α-epoxy-6α-[3′-(furan-3″-yl)-N-methylpropanamido]morphinan Hydrochloride]	0.75 ± 0.09	0.13 ± 0.02	subnanomolar	0.37 ± 0.05		0.59 ± 0.06			0.18 ± 0.02	subnanomolar	68.3 ± 1	17.9 ± 1.81	subnanomolar						
O=C(CCc1ccoc1)N[C@@H]1CC[C@@]2(O)[C@H]3Cc4cccc5c4[C@@]2(CCN3CC2CC2)[C@H]1O5 [Compound 4, 17-Cyclopropylmethyl-4,5α-epoxy-6β-[3′-(furan-3″-yl)propanamido]-14β-hydroxymorphinan Hydrochloride]	1690 ± 116	8.37 ± 1.44		185 ± 38	117 ± 21.2	749 ± 59.1			17.3 ± 1.68		55.8 ± 2.39	14.2 ± 1.27		90	2	81.4 ± 7.72			
Cl.O=C(CCc1ccco1)N[C@H]1CC[C@@]2(O)[C@H]3Cc4ccc(O)c5c4[C@@]2(CCN3CC2CC2)[C@H]1O5 [Compound 14, 17-Cyclopropylmethyl-3,14β-dihydroxy-4,5α-epoxy-6α-[3′-(furan-2″-yl)propanamido]morphinan Hydrochloride]	3.55 ± 0.77				5.22 ± 0.79					subnanomolar		21.8 ± 2.76					2.77 ± 0.73	lack of significant antinociceptive effect	0.72 ± 0.1
CN(C(=O)/C=C/c1ccco1)[C@@H]1CC[C@@]2(O)[C@H]3Cc4cccc5c4[C@@]2(CCN3CC2CC2)[C@H]1O5 [Compound 19, 17-Cyclopropylmethyl-4,5α-epoxy-6β-[(2E)-3′-(furan-2″-yl)-N-methylprop-2-enamido]-14β-hydroxymorphinan Hydrochloride]	5980 ± 581	4.11 ± 0.57		888 ± 363	53.9 ± 3.33	2260 ± 338			215 ± 26.5		> 80	11 ± 0.68		551	52	96.9 ± 8.02			
CN(C(=O)CCc1ccoc1)[C@H]1CC[C@@]2(O)[C@H]3Cc4cccc5c4[C@@]2(CCN3CC2CC2)[C@H]1O5 [Compound 1, 17-Cyclopropylmethyl-4,5α-epoxy-6α-[3′-(furan-3″-yl)N-methylpropanamido]-14β-hydroxymorphinan Hydrochloride]	137 ± 26.5	0.48 ± 0.07	subnanomolar	20 ± 3.49		48.6 ± 6.51	0.553	≥ 80	7.74 ± 0.69		56.4 ± 2.6	11.5 ± 0.81							
